Columns and labels:
[1] = Liver Microsome Stability Assay (rat); conditions: rat liver microsomes, with NADPH, 1.0 uM compound
Experimental: (§1) Stability of a compound was assessed in the presence of liver microsomes from various sources—mouse, rat, monkey and human liver microsomes. 1.0 uM compound, 0.4% DMSO in 0.1 M Potassium Phosphate with 1.0 mg/mL liver microsomes, were incubated at 37° C. with or without 1 mM NADPH. The samples were quenched at 0, and 30 minutes.

[2] = tested on: multiple myeloma cell line NCI-H929; assay: H929 Cell Viability Assay; format: cell-based, human; conditions: Homo sapiens, NCI-H929, 48 h, NCI-H929 cells, Celltiter-Glo
Procedure, shortened: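 NCI-H929 cells in RPMI 1640 with 10% FBS were treated with compound dilutions for 48 h at 37° C, 5% CO2. Viability was read by CellTiter-Glo luminescence. Undefined stereocentres denote stereoisomer mixtures.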

[3] = Liver Microsome Stability Assay (mouse); conditions: mouse liver microsomes, with NADPH, 1.0 uM compound
Experimental: as §1

[4] = tested on: PD1-ss+10aa/Gaussia Luciferase; assay: Dox-Induced PD1-ss-Gluc Assay; format: cell-based; conditions: 24 hr Dox induction; 293FRT/TO cells; read-out: 24 hr Dox Inducible PD1ssGluc 293FRT/TO: Mean IC50
Procedure, shortened: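 Flp-In 293 T-REx, stable line; Tet-regulated PD1-ss+10aa fused to Gaussia luciferase; plated day prior; cpd + doxycycline in DMSO/media; 37 °C, 5% CO2.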

[5] = tested on: IL-2-FL/Gaussia Luciferase; assay: Dox Induced IL2-FL-Gluc Assay; format: cell-based; conditions: for IC50: 24 hr Dox induction, 293FRT/TO cells, read-out: 24 hr Dox Inducible IL2FLGluc 293FRT/TO: Mean IC50; for 24 hr Dox Inducible IL2FLGluc 293FRT/TO: IL2/PD1: ratio of IL2FLGluc IC50 to PD1ssGluc IC50
Procedure, shortened: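 Stable Flp-In 293 T-REx cells carrying doxycycline-inducible full-length IL-2 (aa 1-153) fused to Gaussia luciferase, plated the day before assay. Compound dilutions added in medium containing doxycycline, incubated at 37 °C, 5% CO2. Undefined stereocentres mean data refer to stereoisomer mixtures.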

[6] = tested on: multiple myeloma cell line U266B1; assay: U266 Cell Viability Assay; format: cell-based, human; conditions: Homo sapiens, U-266, 48 h, U266B1 cells, Celltiter-Glo
Procedure, shortened: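 U266B1 multiple myeloma cells in RPMI 1640/10% FBS were treated with compound dilutions for 48 h at 37 °C, 5% CO2. Viability was measured by CellTiter-Glo luminescence; compounds drawn without stereochemistry were tested as stereoisomer mixtures.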

[7] = Liver Microsome Stability Assay (monkey); conditions: monkey liver microsomes, with NADPH, 1.0 uM compound
Experimental: as §1

[8] = tested on: HER3-ss+4aa/Gaussia Luciferase; assay: Dox-Induced Her3-ss-Gluc Assay; format: cell-based; conditions: 24 hr Dox induction; 293FRT/TO cells; read-out: 24 hr Dox Inducible Her3(ss + 4)Gluc 293FRT/TO: Mean IC50
Procedure, shortened: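 Stable Flp-In 293 T-REx cells carried a doxycycline-inducible HER3 signal sequence (+4 aa) fused to Gaussia luciferase. Cells were plated the day before the assay. Compound dilutions in DMSO/media containing doxycycline were then added, and plates were incubated at 37 °C, 5% CO2.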

[9] = Liver Microsome Stability Assay (human); conditions: human liver microsomes, with NADPH, 1.0 uM compound
Experimental: as §1

[10] = tested on: TNFα-FL/Gaussia Luciferase; assay: Dox Induced TNFα-FL-Gluc Assay; format: cell-based; conditions: for IC50: 24 hr Dox induction, 293FRT/TO cells, read-out: 24 hr Dox Inducible TNFaFLGluc 293FRT/TO: Mean IC50; for 24 hr Dox Inducible TNFaFLGluc 293FRT/TO: TNF/PD1: ratio of TNFaFLGluc IC50 to PD1ssGluc IC50
Procedure, shortened: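 Flp-In 293 T-REx cells stably carrying doxycycline-inducible full-length TNFα (aa 1-233) fused to Gaussia luciferase. Plated the day before, then treated with compound dilutions in doxycycline-containing medium at 37° C, 5% CO2.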

Row | Structure (SMILES) | Liver Microsome Stability (Multiple Species): Rat - % Remaining after 30 min w/NADPH [1] [%] | EC50 [2] [µM] | Liver Microsome Stability (Multiple Species): Mouse - % Remaining after 30 min w/NADPH [3] [%] | IC50 [4] [µM] | IC50 [5] [µM] | 24 hr Dox Inducible IL2FLGluc 293FRT/TO: IL2/PD1 [5] | EC50 [6] [µM] | Liver Microsome Stability (Multiple Species): Monkey - % Remaining after 30 min w/NADPH [7] [%] | IC50 [8] [µM] | Liver Microsome Stability (Multiple Species): Human - % Remaining after 30 min w/NADPH [9] [%] | IC50 [10] [µM] | 24 hr Dox Inducible TNFaFLGluc 293FRT/TO: TNF/PD1 [10]
1 | O=C(Nc1nc(/C=C/c2coc(C3CCCCC3)n2)cs1)c1cccn1Cc1ccncc1 [Compound B39, (E)-N-(4-(2-(2-cyclohexyloxazol-4-yl)vinyl)thiazol-2-yl)-1-(pyridin-4-ylmethyl)-1H-pyrrole-2-carboxamide] | 5.38 | 10.2 | 16.5 | 0.268 | 1.96 | 7.3 | 13.1 | 0.47 | 0.945 | 0.27 | 6.46 | 24.1
2 | O=C(Nc1nc(/C=C/c2coc(C3CC3)n2)cs1)c1cccn1Cc1ccncc1 [Compound B40, (E)-N-(4-(2-(2-cyclopropyloxazol-4-yl)vinyl)thiazol-2-yl)-1-(pyridin-4-ylmethyl)-1H-pyrrole-2-carboxamide] | 0.73 | > 25 | 5.73 | 0.221 | 4.57 | 21 | > 25 | 2.25 | 1.68 | 0.48 | > 25 | >113
3 | Cc1coc(/C=C/c2csc(NC(=O)c3cccn3Cc3ccncc3)n2)n1 [Compound B41, (E)-N-(4-(2-(4-methyloxazol-2-yl)vinyl)thiazol-2-yl)-1-(pyridin-4-ylmethyl)-1H-pyrrole-2-carboxamide] | 0.15 | > 25 | 0.36 | 0.398 | > 16.6 | >42 | > 25 | 0.44 | 3.63 | 0.18 | > 25 | >62.8
4 | O=C(Nc1nc(/C=C/c2c[nH]cn2)cs1)c1cccn1Cc1ccncc1 [Compound B42, (E)-N-(4-(2-(1H-imidazol-4-yl)vinyl)thiazol-2-yl)-1-(pyridin-4-ylmethyl)-1H-pyrrole-2-carboxamide] | 8.69 | > 25 | 26.5 | 6.68 | > 25 | >3.7 | > 25 | 11.3 | > 25 | 6.13 | > 25 | >3.74
5 | O=C(Nc1nc(/C=C/c2cnccn2)cs1)c1cccn1Cc1ccncc1 [Compound B43, (E)-N-(4-(2-(pyrazin-2-yl)vinyl)thiazol-2-yl)-1-(pyridin-4-ylmethyl)-1H-pyrrole-2-carboxamide] | 1.88 | > 25 | 1.19 | 0.264 | > 25 | >95 | > 25 | 0.92 | > 25 | 1.83 | > 25 | >94.5
6 | O=C(Nc1nc(/C=C/c2ccncn2)cs1)c1cccn1Cc1ccncc1 [Compound B44, (E)-1-(pyridin-4-ylmethyl)-N-(4-(2-(pyrimidin-4-yl)vinyl)thiazol-2-yl)-1H-pyrrole-2-carboxamide] | 1.3 | > 25 | 4.87 | 3.36 | > 25 | >7.4 | > 25 | 0.36 | > 25 | 0.24 | > 25 | >7.44
7 | CC(C)n1cnc(/C=C/c2csc(NC(=O)c3cccn3Cc3ccnc(F)c3)n2)c1 [Compound B45, (E)-1-((2-fluoropyridin-4-yl)methyl)-N-(4-(2-(1-isopropyl-1H-imidazol-4-yl)vinyl)thiazol-2-yl)-1H-pyrrole-2-carboxamide] | 16.3 | 19.9 | 23.2 | 0.0421 | > 22.6 | >540 | > 24.2 | 0.19 | > 25 | 0.1 | > 25 | >593
8 | Cc1ocnc1/C=C/c1csc(NC(=O)c2cccn2Cc2ccnc(F)c2)n1 [Compound B47, (E)-1-((2-fluoropyridin-4-yl)methyl)-N-(4-(2-(5-methyloxazol-4-yl)vinyl)thiazol-2-yl)-1H-pyrrole-2-carboxamide] | 0.41 | > 25 | 30.8 | 0.0415 | 14.5 | 350 | > 25 | 1.45 | 5.75 | 2.81 | 18.8 | 454
9 | Cc1ccc(/C=C/c2csc(NC(=O)c3cccn3Cc3ccncc3)n2)nc1F [Compound B48, (E)-N-(4-(2-(6-fluoro-5-methylpyridin-2-yl)vinyl)thiazol-2-yl)-1-(pyridin-4-ylmethyl)-1H-pyrrole-2-carboxamide] | 1.44 | > 25 | 1.17 | 0.0225 | 0.576 | 26 | > 25 | 1.39 | 0.127 | 8.85 | 4.14 | 184
10 | Cc1ccc(/C=C/c2csc(NC(=O)c3cccn3Cc3ccnc(F)c3)n2)nc1F [Compound B49, (E)-N-(4-(2-(6-fluoro-5-methylpyridin-2-yl)vinyl)thiazol-2-yl)-1-((2-fluoropyridin-4-yl)methyl)-1H-pyrrole-2-carboxamide] | 4.13 | 11.2 | 12.5 | 0.0274 | 1.26 | 46 | > 19.1 | 1.51 | 0.131 | 1.53 | 2.51 | 91.4
